Data as given in patent publication US8663621B2, “Identification and synthesis of a male-produced pheromone for the neotropical root weevil Diaperpes abbreviatus (coleoptera: curculionidae)” (The United States of America, as Represented by the …, priority 2012, dated 2014).
“Also recorded” adds a separate entry of the source. One block for each molecule: values may come before it.

Columns and labels:
[1] = test system: Diaprepes abbreviatus antenna (male and female); test: gas chromatograph-coupled electroantennogram detection (GC-EAD) of antennal response; conditions: for antennal response (GC-EAD) to peaks of headspace extract: hexane extract of headspace volatiles from adult males and citrus leaves (FIG. 2); for antennal response (GC-EAD): male and female antennae, 50 ng linalool and 100 ng synthetic compound in hexane (FIG. 4)
Description: In a first assay employed to find an attractive chemical of insect origin, a gas chromatograph-coupled electroantennogram detection (GC-EAD) system was used to analyze male aeration samples. This system included an Agilent 7890A GC equipped with a split/splitless injector, an HP-1 capillary column (approximately 30 m×0.32 mm×0.25 μm, Agilent Technologies, Inc., Santa Clara, Calif., USA), a post column glass Y-tube (Supelco, Bellefonte, Pa., USA) splitter for dividing column effluent in an approximately 1:1 ratio between a flame ionization detector (FID) and a heated (200° C.) EAD transfer line. Two lengths of deactivated column (approximately 0.32 mm ID) were used to carry effluent to the FID and EAD port after the split. At the start of GC-EAD runs, the GC oven temperature was held at about 35° C. for 3 minutes and then increased to about 260° C. at a rate of about 15° C./min and held at about 260° C. for about 10 min. Injector and FID temperatures were set at about 220° C. and about 300° C., respectively. Splitless injection was used with helium as the carrier gas at a flow rate of about 2.3 ml/min. A heated transfer line emptied into a charcoal-filtered, humidified air stream (about 200 ml/min at about 30 cm/sec) that carried the effluent over an antennal preparation. The antennal preparation can be made by plucking the antenna from either a male or female insect (grasping it firmly at the base of the antenna near the head with fine forceps) and placing the antenna between two metal electrodes of a Universal EAG probe, to which small amounts of salt-free electrode gel (Spectra 360, Parker Laboratories, Fairfield, N.J., USA) had been applied. The probe was connected to a type PRG-2 amplifier (Universal EAG probe, Syntech, Hilversum, The Netherlands). The humidified air stream was directed to pass over the antennal preparation generating a signal. […] […] […] […] Antennae from male and female D. abbreviatus were used as detectors to confirm antennal response to the synthetic compound.

[2] = test system: Diaprepes abbreviatus antenna (male and female); conditions: used as co-injected control for antenna viability; cited from earlier work
[3] = test system: Diaprepes abbreviatus adults; test: two-choice olfactometer behavioral bioassay; type: in vivo; conditions: for Number choosing A (air) / Number choosing B (odor source): A: air vs B: odor source; for No choice (number): moved to but remained in central arena; for No response (number): remained in inlet
Description: Behavioral response to the pheromone was tested in an olfactometer (Model 4C, ARS, Inc., Micanopy, Fla. USA) wherein individual weevils (starved for about 24 h) were placed in a glass inlet and allowed to walk upwards into the center of an arena with a balanced, filtered and humidified airflow from two arms oriented at 180° to each other and outfitted with glass reservoirs containing an odor source or blank. The assays were conducted in the dark between about 9 AM and 2 PM; each run was terminated when the weevil moved into one of the glass receptacles or when about 15 min had elapsed. Assays were run in the dark because of a strong phototropic response in this insect (Lapointe and Hall 2009). Weevil position was scored as no-response (remaining in the inlet), no-choice (moving to but remaining in the central arena) or choosing one of the two arms. Responses of unmated approximately 4 to 6-week-old males and females were recorded to various odor sources: fresh young citrus leaves (flush), flush fed upon for about 24 hr by male D. abbreviatus, approximately 30 μg of methyl (E)-3-(2-hydroxyethyl)-4-methyl-2-pentenoate in approximately 10:1 hexanes:ethyl acetate pipetted onto a glass slide, and a clean glass slide. All glass components of the olfactometer were thoroughly washed between runs with warm soap and water, rinsed with methanol and air-dried. Between replications of a given treatment, the arms of the olfactometer used for that treatment were switched to control for bias in the apparatus. The number of weevils choosing a treatment arm was compared with the control arm (clean air) by the G-test (Sokal and Rohlf 1994).

[4] = stability of the pheromone (lactonization; acid, heat, storage); type: physicochemical; conditions: for stability in acidic medium (lactonization to 2): acid-catalyzed THP removal, CDCl3 with residual acidity
Description: At the core of the chosen synthetic route lies a stereoselective carbocupration of α,β-acetylenic esters that was exclusively cis-stereospecific when the reaction was conducted in THF at low temperatures (Corey and Katzenellenbogen 1969, Bourque et al. 1999, Drew et al. 1999). However, a conjugate addition of a heterocuprate, formed in situ from isopropylmagnesium bromide and copper(I) iodide in the presence of N,N,N,N'-tetramethylethylenediamine ([…] et al. 1984), to the acetylenic ester (FIG. 1) proceeded with some loss of stereoselectivity resulting in a mixture of E and Z olefinic esters in an approximately 92:8 ratio. During acid-catalyzed removal of the tetrahydropyranyl (THP) protecting group, the ratio of 1E and 1Z dropped to approximately 86:14 and a considerable amount of lactone 2 was formed, thus indicating instability of the putative pheromone in acidic medium.

Structure (SMILES): CC(C)=CCC/C(C)=C/CO (single isomer, unassigned) [geraniol, reference compound]
antennal response (GC-EAD) to peaks of headspace extract [1]: positive antennal responses

Structure (SMILES): C=CC(C)(O)CCC=C(C)C (single isomer, unassigned) [linalool, reference compound]
antennal response (GC-EAD) to peaks of headspace extract [1]: positive antennal responses
antennal response (GC-EAD) [1]: Both male and female antennae responded
antennal response, previously determined [2]: consistent antennal response

Structure (SMILES): CC(C)=CCC/C(C)=C/C=O [geranial, reference compound]
antennal response (GC-EAD) to peaks of headspace extract [1]: positive antennal responses

Structure (SMILES): CC(C)C1=CC(=O)OCC1 [lactone]
antennal response (GC-EAD) [1]: No antennal response; also recorded: Neither responded

stability in acidic medium (lactonization to 2) ([4]; listed as 1E): noticeable cyclization of 1E to 2
stability in acidic medium (lactonization to 2) ([4]; listed as putative pheromone): instability
thermal stability ([4]; preparative GC with conventional injection port): thermal instability
storage stability ([4]; purified sample, up to 25° C. in aprotic solvents (benzene, hexane, ethyl acetate)): stores indefinitely
Structure (SMILES): COC(=O)/C=C(\CCO)C(C)C [methyl (E)-3-(2-hydroxyethyl)-4-methyl-2-pentenoate]
antennal response (GC-EAD) to peaks of headspace extract [1]: elicit a response from male and female antennae
antennal response (GC-EAD) [1]: Both male and female antennae responded
Number choosing A (air) ([3]; female weevils): 17
Number choosing B (odor source) ([3]; female weevils): 48
No choice (number) ([3]; female weevils): 17
No response (number) ([3]; female weevils): 71
preference for odor source versus clean air (in words) ([3]; female weevils, α=0.05, G-test): consistently moved upwind more often
preference for odor source versus clean air (in words) ([3]; female weevils, α=0.05, G-test, listed as synthetic pheromone): more often as compared to clean air
Number choosing A (air) ([3]; male weevils): 30
Number choosing B (odor source) ([3]; male weevils): 34
preference for odor source versus clean air (in words) ([3]; male weevils, listed as pheromone): did not show a clear preference
preference for odor source versus clean air (in words) ([3]; male weevils, listed as synthetic pheromone): no clear preference
No choice (number) ([3]; male weevils): 20
No response (number) ([3]; male weevils): 69

Structure (SMILES): COC(=O)/C=C(/CCO)C(C)C [methyl (Z)-3-(2-hydroxyethyl)-4-methyl-2-pentenoate]
antennal response (GC-EAD) [1]: inactive
antennal response (GC-EAD) ([1]; listed as Z isomer): No antennal response; also recorded: Neither responded
